ChEMBL document CHEMBL3044875, “Synthesis and antimicrobial activity of some bisoctahydroxanthene-1,8-dione derivatives” (2011)
Active and inactive are the calls of the source. The calls are words filed in the database; no cut-off is given here.

How the values were obtained:
Escherichia coli [1] = test: Antibacterial activity against Escherichia coli ATCC 25922 at 10 ug/disk after 24 hr by disk-diffusion method; assay type: functional; conditions: ATCC 25922, 24 h, read-out: DIZ
[2] = test system: Staphylococcus epidermidis; test: Antibacterial activity against Staphylococcus epidermidis ATCC 12228 at 10 ug/disk after 24 hr by disk diffusion method; assay type: functional; conditions: ATCC 12228, 24 h, read-out: DIZ
Pseudomonas aeruginosa [3] = test: Antibacterial activity against Pseudomonas aeruginosa ATCC 27853 at 10 ug/disk after 24 hr by disk-diffusion method; assay type: functional; conditions: ATCC 27853, 24 h, read-out: DIZ
Staphylococcus aureus [4] = test: Antibacterial activity against Staphylococcus aureus ATCC 25923 at 10 ug/disc after 24 hr by disk diffusion method; assay type: functional; conditions: ATCC 25923, 24 h, read-out: DIZ
Proteus vulgaris [5] = test: Antibacterial activity against Proteus vulgaris NRRL-B-123 at 10 ug/disk after 24 hr by disk diffusion method; assay type: functional; conditions: NRRL-B-123, 24 h, read-out: DIZ
Bacillus cereus [6] = test: Antibacterial activity against Bacillus cereus NRRL 3711 at 10 ug/disk after 24 hr by disk diffusion method; assay type: functional; conditions: NRRL 3711, 24 h, read-out: DIZ
Nocardia [7] = test: Antibacterial activity against Nocardia canis at 10 ug/disk after 24 hr by disk diffusion method; assay type: functional; conditions: read-out: DIZ
Rhodotorula mucilaginosa [8] = test: Antifungal activity against Rhodotorula mucilaginosa at 100 U/disk after 48 hr by disk diffusion method; assay type: functional, organism-based
Aspergillus niger [9] = test: Antifungal activity against Aspergillus niger ATCC 10949 at 20 ug/disk after 72 hr by disk diffusion method; assay type: functional, organism-based
Bacillus cereus [10] = test: Antibacterial activity against Bacillus cereus NRRL 3711 at 140 ug/disk after 24 hr by disk diffusion method; assay type: functional; conditions: NRRL 3711, 24 h, read-out: DIZ
Rhodotorula mucilaginosa [11] = test: Antifungal activity against Rhodotorula mucilaginosa at 20 ug/disk after 48 hr by disk diffusion method; assay type: functional
Pseudomonas aeruginosa [12] = test: Antibacterial activity against Pseudomonas aeruginosa ATCC 27853 at 40 ug/disk after 24 hr by disk-diffusion method; assay type: functional, organism-based
Rhodotorula mucilaginosa [13] = test: Antifungal activity against Rhodotorula mucilaginosa at 140 ug/disk after 48 hr by disk diffusion method; assay type: functional; conditions: read-out: DIZ
Bacillus cereus [14] = test: Antibacterial activity against Bacillus cereus NRRL 3711 at 40 ug/disk after 24 hr by disk diffusion method; assay type: functional; conditions: NRRL 3711, 24 h, read-out: DIZ
Nocardia [15] = test: Antibacterial activity against Nocardia canis at 40 ug/disk after 24 hr by disk diffusion method; assay type: functional
[16] = test system: Staphylococcus epidermidis; test: Antibacterial activity against Staphylococcus epidermidis ATCC 12228 at 20 ug/disk after 24 hr by disk diffusion method; assay type: functional, organism-based
Candida albicans [17] = test: Antifungal activity against Candida albicans ATCC 10231 at 40 ug/disk after 48 hr by disk-diffusion method; assay type: functional; conditions: ATCC 10231, 48 h, read-out: DIZ
Escherichia coli [18] = test: Antibacterial activity against Escherichia coli ATCC 25922 at 40 ug/disk after 24 hr by disk-diffusion method; assay type: functional
Proteus vulgaris [19] = test: Antibacterial activity against Proteus vulgaris NRRL-B-123 at 40 ug/disk after 24 hr by disk diffusion method; assay type: functional, organism-based
Bacillus cereus [20] = test: Antibacterial activity against Bacillus cereus NRRL 3711 at 20 ug/disk after 24 hr by disk diffusion method; assay type: functional; conditions: NRRL 3711, 24 h, read-out: DIZ
Staphylococcus aureus [21] = test: Antibacterial activity against Staphylococcus aureus ATCC 25923 at 20 ug/disc after 24 hr by disk diffusion method; assay type: functional
Staphylococcus aureus [22] = test: Antibacterial activity against Staphylococcus aureus ATCC 25923 at 40 ug/disc after 24 hr by disk diffusion method; assay type: functional
Nocardia [23] = test: Antibacterial activity against Nocardia canis at 20 ug/disk after 24 hr by disk diffusion method; assay type: functional, organism-based
Candida albicans [24] = test: Antifungal activity against Candida albicans ATCC 10231 at 140 ug/disk after 48 hr by disk-diffusion method; assay type: functional; conditions: ATCC 10231, 48 h, read-out: DIZ
Proteus vulgaris [25] = test: Antibacterial activity against Proteus vulgaris NRRL-B-123 at 140 ug/disk after 24 hr by disk diffusion method; assay type: functional, organism-based
Escherichia coli [26] = test: Antibacterial activity against Escherichia coli ATCC 25922 at 20 ug/disk after 24 hr by disk-diffusion method; assay type: functional
[27] = test system: Staphylococcus epidermidis; test: Antibacterial activity against Staphylococcus epidermidis ATCC 12228 at 40 ug/disk after 24 hr by disk diffusion method; assay type: functional
Aspergillus niger [28] = test: Antifungal activity against Aspergillus niger ATCC 10949 at 40 ug/disk after 72 hr by disk diffusion method; assay type: functional, organism-based
Pseudomonas aeruginosa [29] = test: Antibacterial activity against Pseudomonas aeruginosa ATCC 27853 at 140 ug/disk after 24 hr by disk-diffusion method; assay type: functional, organism-based
Proteus vulgaris [30] = test: Antibacterial activity against Proteus vulgaris NRRL-B-123 at 20 ug/disk after 24 hr by disk diffusion method; assay type: functional, organism-based
Aspergillus niger [31] = test: Antifungal activity against Aspergillus niger ATCC 10949 at 140 ug/disk after 72 hr by disk diffusion method; assay type: functional
Candida albicans [32] = test: Antifungal activity against Candida albicans ATCC 10231 at 20 ug/disk after 48 hr by disk-diffusion method; assay type: functional; conditions: ATCC 10231, 48 h, read-out: DIZ
Staphylococcus aureus [33] = test: Antibacterial activity against Staphylococcus aureus ATCC 25923 at 140 ug/disc after 24 hr by disk diffusion method; assay type: functional
Escherichia coli [34] = test: Antibacterial activity against Escherichia coli ATCC 25922 at 140 ug/disk after 24 hr by disk-diffusion method; assay type: functional
Rhodotorula mucilaginosa [35] = test: Antifungal activity against Rhodotorula mucilaginosa at 40 ug/disk after 48 hr by disk diffusion method; assay type: functional
[36] = test system: Staphylococcus epidermidis; test: Antibacterial activity against Staphylococcus epidermidis ATCC 12228 at 140 ug/disk after 24 hr by disk diffusion method; assay type: functional
Nocardia [37] = test: Antibacterial activity against Nocardia canis at 140 ug/disk after 24 hr by disk diffusion method; assay type: functional
Pseudomonas aeruginosa [38] = test: Antibacterial activity against Pseudomonas aeruginosa ATCC 27853 at 20 ug/disk after 24 hr by disk-diffusion method; assay type: functional, organism-based
[39] = ATCC 25923, 24 h, read-out: DIZ

Compound | diameter of the inhibition zone (DIZ) (Aspergillus niger [9]) | zone of inhibition at 140 µg/disc (Bacillus cereus [10]) | diameter of the inhibition zone (DIZ) (Pseudomonas aeruginosa [12]) | zone of inhibition at 140 µg/disc (Rhodotorula mucilaginosa [13]) | zone of inhibition at 40 µg/disc (Bacillus cereus [14]) | diameter of the inhibition zone (DIZ) (Nocardia [15]) | diameter of the inhibition zone (DIZ) [16] | zone of inhibition at 40 µg/disc (Candida albicans [17]) | diameter of the inhibition zone (DIZ) (Escherichia coli [18]) | diameter of the inhibition zone (DIZ) (Proteus vulgaris [19]) | zone of inhibition at 20 µg/disc (Bacillus cereus [20]) | diameter of the inhibition zone (DIZ) (Nocardia [23]) | zone of inhibition at 140 µg/disc (Candida albicans [24]) | diameter of the inhibition zone (DIZ) (Proteus vulgaris [25]) | diameter of the inhibition zone (DIZ) (Escherichia coli [26]) | diameter of the inhibition zone (DIZ) [27] | diameter of the inhibition zone (DIZ) (Aspergillus niger [28]) | diameter of the inhibition zone (DIZ) (Pseudomonas aeruginosa [29]) | diameter of the inhibition zone (DIZ) (Proteus vulgaris [30]) | zone of inhibition at 20 µg/disc (Candida albicans [32]) | further results
CN(C)[C@@H]1C(O)=C(C(N)=O)C(=O)[C@@]2(O)C(O)=C3C(=O)c4c(O)cccc4[C@@](C)(O)[C@H]3C[C@@H]12 [TETRACYCLINE] |  |  |  |  |  |  |  |  |  |  |  |  |  |  |  |  |  |  |  |  | zone of inhibition at 10 µg/disc (Escherichia coli [1]): 25 mm; zone of inhibition at 10 µg/disc [2]: 15 mm; zone of inhibition at 10 µg/disc (Pseudomonas aeruginosa [3]): 13 mm; zone of inhibition at 10 µg/disc (Staphylococcus aureus [4]): 40 mm; zone of inhibition at 10 µg/disc (Proteus vulgaris [5]): 15 mm; zone of inhibition at 10 µg/disc (Bacillus cereus [6]): 28 mm; zone of inhibition at 10 µg/disc (Nocardia [7]): 14 mm
NYSTATIN |  |  |  |  |  |  |  |  |  |  |  |  |  |  |  |  |  |  |  |  | inhibition zone (IZ) (Rhodotorula mucilaginosa [8]): 21 mm
O=C1CC(c2ccccc2)CC2=C1C(c1cccc(C3C4=C(CC(c5ccccc5)CC4=O)OC4=C3C(=O)CC(c3ccccc3)C4)c1)C1=C(CC(c3ccccc3)CC1=O)O2 (stereo not drawn) | inactive | 12 mm | inactive | 7 mm | 11 mm | inactive | inactive | 8 mm | inactive | inactive | 8 mm | inactive | 8 mm | inactive | inactive | inactive | inactive | inactive | inactive | 7 mm | diameter of the inhibition zone (DIZ) (Rhodotorula mucilaginosa [11]): inactive; diameter of the inhibition zone (DIZ) (Staphylococcus aureus [21]): inactive; diameter of the inhibition zone (DIZ) (Staphylococcus aureus [22]): inactive; diameter of the inhibition zone (DIZ) (Aspergillus niger [31]): inactive; diameter of the inhibition zone (DIZ) (Staphylococcus aureus [33]): inactive; diameter of the inhibition zone (DIZ) (Escherichia coli [34]): inactive; diameter of the inhibition zone (DIZ) (Rhodotorula mucilaginosa [35]): inactive; diameter of the inhibition zone (DIZ) [36]: inactive; diameter of the inhibition zone (DIZ) (Nocardia [37]): inactive; diameter of the inhibition zone (DIZ) (Pseudomonas aeruginosa [38]): inactive
O=C1CCCC2=C1C(c1ccc(C3C4=C(CCCC4=O)OC4=C3C(=O)CCC4)cc1)C1=C(CCCC1=O)O2 | inactive | 8 mm | inactive | 10 mm | 9 mm | inactive | inactive | 8 mm | inactive | inactive | 8 mm | inactive | 8 mm | inactive | inactive | inactive | inactive | inactive | inactive | 7 mm | zone of inhibition at 20 µg/disc (Rhodotorula mucilaginosa [11]; read-out: DIZ): 8 mm; zone of inhibition at 20 µg/disc (Staphylococcus aureus [21]; [39]): 8 mm; zone of inhibition at 40 µg/disc (Staphylococcus aureus [22]; [39]): 10 mm; zone of inhibition at 140 µg/disc (Aspergillus niger [31]; ATCC 10949, 72 h, read-out: DIZ): 7 mm; zone of inhibition at 140 µg/disc (Staphylococcus aureus [33]; [39]): 14 mm; diameter of the inhibition zone (DIZ) (Escherichia coli [34]): inactive; zone of inhibition at 40 µg/disc (Rhodotorula mucilaginosa [35]; read-out: DIZ): 9 mm; zone of inhibition at 140 µg/disc ([36]; ATCC 12228, 24 h, read-out: DIZ): 7 mm; diameter of the inhibition zone (DIZ) (Nocardia [37]): inactive; diameter of the inhibition zone (DIZ) (Pseudomonas aeruginosa [38]): inactive
